# In PubChem BioAssay (NCI):
# Several values for one entry are separate records, joined by “and”; a condition that tells them apart may be missing. Identical values can stand only once.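 Method: 48-hour compound exposure of cells in 96-well plates, five concentrations, linear interpolation of endpoints. Here, GI50 denotes the concentration required for 50% inhibition of growth. TGI: total growth inhibition.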
# What was measured:
# Assay in all cases: DTP human tumour cell line panel, 48 h
# [1] = test system: RXF 393 renal
# [2] = test system: KM20L2 colon
# [3] = test system: SK-MEL-2 melanoma
# [4] = test system: K-562 leukemia
# [5] = test system: SK-MEL-28 melanoma
# [6] = test system: SF-295 CNS
# [7] = test system: RXF-631 renal
# [8] = test system: HOP-62 NSCLC
# [9] = test system: HCC-2998 colon
# [10] = test system: UACC-257 melanoma
# [11] = test system: HOP-18 NSCLC
# [12] = test system: OVCAR-8 ovarian
# [13] = test system: HL-60(TB) leukemia
# [14] = test system: HCT-116 colon
# [15] = test system: KM12 colon
# [16] = test system: TK-10 renal
# [17] = test system: LXFL 529 NSCLC
# [18] = test system: DMS 114 small cell lung
# [19] = test system: M19-MEL melanoma
# [20] = test system: CAKI-1 renal
# [21] = test system: OVCAR-5 ovarian
# [22] = test system: SW-620 colon
# [23] = test system: OVCAR-4 ovarian
# [24] = test system: OVCAR-3 ovarian
# [25] = test system: SF-268 CNS
# [26] = test system: M14 melanoma
# [27] = test system: IGROV1 ovarian
# [28] = test system: NCI-H522 lung
# [29] = test system: A498 renal
# [30] = test system: UACC-62 melanoma
# [31] = test system: CCRF-CEM leukemia
# [32] = test system: ACHN renal
# [33] = test system: NCI-H460 lung
# [34] = test system: UO-31 renal
# [35] = test system: HCT-15 colon
# [36] = test system: LOX IMVI melanoma
# [37] = test system: A549 NSCLC
# [38] = test system: SK-OV-3 ovarian
# [39] = test system: 786-0 renal
# [40] = test system: U251 CNS
# [41] = test system: SF-539 CNS
# [42] = test system: SR leukemia
# [43] = test system: MALME-3M melanoma
# [44] = test system: EKVX NSCLC
# [45] = test system: NCI-H23 lung
# [46] = test system: SK-MEL-5 melanoma
# [47] = test system: DMS 273 small cell lung
# [48] = test system: SNB-19 CNS
# [49] = test system: SNB-75 CNS
# [50] = test system: DLD-1 colon
# [51] = test system: HT29 colon
# [52] = test system: HOP-92 NSCLC
# [53] = test system: MOLT-4 leukemia
# [54] = test system: RPMI-8226 leukemia
# [55] = test system: SNB-78 CNS
compound,measurement,setting,value
CCCCCCCCCCCCCC(=O)OC(/C=C/C(C)C)C(O)C(O)C(OC)C(=O)NC1CCCCN(C)C1=O (configuration not stated),GI50,[1],> 49 µM
same,TGI,[1],6.22 µM and > 49 µM
same,GI50,[2],> 49 µM
same,TGI,[2],7.64 µM and > 49 µM
same,GI50,[3],> 49 µM
same,TGI,[3],9.12 µM and > 49 µM
same,GI50,[4],> 49 µM
same,TGI,[4],13.4 µM and > 49 µM
same,GI50,[5],> 49 µM
same,TGI,[5],7.64 µM and > 49 µM
same,TGI,[6],5.97 µM and > 49 µM
same,GI50,[7],> 49 µM
same,TGI,[7],7.52 µM and > 49 µM
same,TGI,[8],6.54 µM and > 49 µM
same,TGI,[9],5.54 µM and > 49 µM
same,GI50,[10],> 49 µM
same,TGI,[10],18.3 µM and > 49 µM
same,GI50,[11],6.44 µM
same,TGI,[11],9.84 µM and > 49 µM
same,TGI,[12],8.44 µM and > 49 µM
same,TGI,[13],5.49 µM and 10.4 µM and > 49 µM
same,GI50,[14],> 49 µM
same,TGI,[14],5.46 µM and > 49 µM
same,TGI,[15],7.49 µM and > 49 µM
same,GI50,[16],> 49 µM
same,TGI,[16],32.5 µM and > 49 µM
same,GI50,[17],> 49 µM
same,TGI,[17],6.89 µM and > 49 µM
same,GI50,[18],> 49 µM
same,TGI,[18],5.44 µM and > 49 µM
same,GI50,[19],> 49 µM
same,TGI,[19],7.5 µM and > 49 µM
same,TGI,[20],7.51 µM
same,GI50,[21],> 49 µM
same,TGI,[21],10.8 µM and > 49 µM
same,GI50,[22],> 49 µM
same,TGI,[22],6.06 µM and > 49 µM
same,TGI,[23],7.57 µM and > 49 µM
same,TGI,[24],8.03 µM and > 49 µM
same,TGI,[25],8.63 µM and > 49 µM
same,GI50,[26],> 49 µM
same,TGI,[26],6.09 µM and > 49 µM
same,TGI,[27],5.9 µM and > 49 µM
same,TGI,[28],6.67 µM and > 49 µM
same,GI50,[29],> 49 µM
same,TGI,[29],32.5 µM and > 49 µM
same,TGI,[30],6.15 µM and > 49 µM
same,GI50,[31],> 49 µM
same,TGI,[31],10.7 µM and > 49 µM
same,TGI,[32],5.14 µM and > 49 µM
same,TGI,[33],5.79 µM and > 49 µM
same,GI50,[34],> 49 µM
same,TGI,[34],5.25 µM and > 49 µM
same,TGI,[35],7.55 µM and > 49 µM
same,TGI,[36],6.53 µM and > 49 µM
same,TGI,[37],5.06 µM and > 49 µM
same,GI50,[38],> 49 µM
same,TGI,[38],11.5 µM and > 49 µM
same,TGI,[39],5.94 µM and > 49 µM
same,TGI,[40],6.43 µM and > 49 µM
same,TGI,[41],7.18 µM and > 49 µM
same,GI50,[42],1.12 µM
same,TGI,[42],4.78 µM and 5.75 µM
same,TGI,[43],7.93 µM and > 49 µM
same,GI50,[44],5.01 µM and 15.7 µM
same,TGI,[44],17.3 µM and > 49 µM
same,TGI,[45],6.48 µM and > 49 µM
same,TGI,[46],5.92 µM and > 49 µM
same,GI50,[47],> 49 µM
same,TGI,[47],4.98 µM and > 49 µM
same,GI50,[48],> 49 µM
same,TGI,[48],6.46 µM and > 49 µM
same,TGI,[49],8.6 µM and > 49 µM
same,GI50,[50],> 49 µM
same,TGI,[50],6.56 µM and > 49 µM
same,TGI,[51],7.01 µM and > 49 µM
same,GI50,[52],> 49 µM
same,TGI,[52],> 49 µM
same,TGI,[53],7.54 µM and > 49 µM
same,GI50,[54],> 49 µM
same,TGI,[54],9.97 µM and > 49 µM
same,TGI,[55],14.8 µM
